Calls of active or inactive are those of the source.
Tests used:
[1] = tested on: Enterococcus faecalis; assay: Bactericidal activity against multidrug resistant Enterococcus faecalis ATCC 51299 assessed as inhibition of bacterial growth by measuring ratio of MBC to MIC; assay type: functional
[2] = tested on: Staphylococcus aureus; assay: Antibiofilm activity in methicillin resistant Staphylococcus aureus clinical isolate 003 assessed as biofilm clearance rate at 4 times MIC by crystal violet staining based analysis relative to control; assay type: functional
[3] = tested on: Staphylococcus aureus; assay: Antibacterial activity against Staphylococcus aureus clinical isolate 29; assay type: functional
[4] = tested on: Cell membrane; assay: Disruption of membrane permeability in multidrug resistant Enterococcus faecalis ATCC 51299 assessed as protein leakage at 2 to 4 times MIC; assay type: cell membranes
[5] = tested on: Enterococcus faecalis; assay: Antibacterial activity against multidrug resistant Enterococcus faecalis ATCC 51299 at 2 to 4 times MIC measured after 8 to 12 hrs by time-kill assay; assay type: functional, organism-based; conditions: time 8-12 hrs
[6] = tested on: Cell membrane; assay: Disruption of membrane permeability in multidrug resistant Enterococcus faecalis ATCC 51299 assessed as increase in fluorescence intensity at 4 to 8 times MIC by PI staining based analysis
[7] = tested on: Staphylococcus aureus; assay: Antibacterial activity against methicillin-resistant Staphylococcus aureus clinical isolate 003 at 2 to 4 times MIC measured after 8 to 12 hrs by time-kill assay; assay type: functional, organism-based; conditions: time 8-12 hrs
[8] = tested on: Enterococcus faecalis; assay: Antibiofilm activity in multidrug resistant Enterococcus faecalis ATCC 51299 assessed as biofilm clearance rate at 4 times MIC by crystal violet staining based analysis relative to control; assay type: functional
[9] = tested on: Enterococcus faecalis; assay: Antibiofilm activity in multidrug resistant Enterococcus faecalis ATCC 51299 assessed as reduction in biofilm density at 0.5 to 4 times MIC measured after 24 hrs by inverted fluorescence microscopic analysis; assay type: functional, organism-based
[10] = tested on: Cell membrane; assay: Induction of membrane depolarization in multidrug resistant Enterococcus faecalis ATCC 51299 assessed as increase in fluorescence intensity at 2 to 4 times MIC by DiSC3(5) dye based analysis
[11] = tested on: Cell membrane; assay: Disruption of membrane permeability in methicillin resistant Staphylococcus aureus clinical isolate 003 assessed as nucleic acid leakage at 2 to 4 times MIC
[12] = tested on: Cell membrane; assay: Disruption of membrane permeability in multidrug resistant Enterococcus faecalis ATCC 51299 assessed as increase in malondialdehyde level
[13] = tested on: Enterococcus faecalis; assay: Antibacterial activity against multidrug resistant Enterococcus faecalis ATCC 51299 in presence of phosphatidylglycerol; assay type: functional, organism-based
[14] = tested on: Cell membrane; assay: Induction of cell membrane damage in multidrug resistant Enterococcus faecalis ATCC 51299 assessed as increase in red fluorescence at 2 to 4 times MIC by PI staining based analysis; assay type: cell membranes
[15] = tested on: Enterococcus faecalis; assay: Antibacterial activity against multidrug resistant Enterococcus faecalis ATCC 51299 in presence of phosphatidylethanolamine; assay type: functional, organism-based
[16] = tested on: Staphylococcus aureus; assay: Antibacterial activity against methicillin resistant Staphylococcus aureus clinical isolate 003 in presence of cardiolipin; assay type: functional, organism-based
[17] = tested on: Staphylococcus aureus; assay: Antibacterial activity in methicillin resistant Staphylococcus aureus clinical isolate 003 at sub-MIC measured after 20 passages; assay type: functional, organism-based
[18] = tested on: Staphylococcus aureus; assay: Antibiofilm activity in methicillin resistant Staphylococcus aureus clinical isolate 003 assessed as destruction of biofilm integrity at 0.5 to 4 times MIC measured after 24 hrs by inverted fluorescence microscopic analysis; assay type: functional, organism-based
[19] = tested on: Staphylococcus aureus; assay: Antibacterial activity against methicillin resistant Staphylococcus aureus clinical isolate 003; assay type: functional
[20] = tested on: Cell membrane; assay: Induction of membrane depolarization in methicillin resistant Staphylococcus aureus clinical isolate 003 assessed as increase in fluorescence intensity at 2 to 4 times MIC by DiSC3(5) dye based analysis
[21] = tested on: Cell membrane; assay: Induction of membrane damage in multidrug resistant Enterococcus faecalis ATCC 51299 assessed as deformation of bacterial surface at 2 to 4 times MIC by SEM analysis; assay type: cell membranes
[22] = tested on: Enterococcus faecalis; assay: Antibacterial activity against Enterococcus faecalis clinical isolate 7; assay type: functional
[23] = tested on: Cell membrane; assay: Disruption of membrane permeability in methicillin resistant Staphylococcus aureus clinical isolate 003 assessed as increase in ROS accumulation at 2 to 4 times MIC measured after 1 hr
[24] = tested on: Staphylococcus aureus; assay: Antibacterial activity against Staphylococcus aureus clinical isolate 31; assay type: functional
[25] = tested on: Cell membrane; assay: Induction of cell membrane damage in methicillin resistant Staphylococcus aureus clinical isolate 003 assessed as increase in red fluorescence at 2 to 4 times MIC by PI staining based analysis; assay type: cell membranes
[26] = tested on: Enterococcus faecalis; assay: Antibacterial activity in multidrug resistant Enterococcus faecalis ATCC 51299 at sub-MIC measured after 20 passages; assay type: functional, organism-based
[27] = tested on: Cell membrane; assay: Induction of cell membrane damage in multidrug resistant Enterococcus faecalis ATCC 51299 assessed as bacterial death at 2 to 4 times MIC by confocal laser scanning microscopy; assay type: cell membranes
[28] = tested on: Cell membrane; assay: Induction of membrane damage in methicillin resistant Staphylococcus aureus clinical isolate 003 assessed as deformation of bacterial surface at 2 to 4 times MIC by SEM analysis; assay type: cell membranes
[29] = tested on: Enterococcus faecalis; assay: Antibiofilm activity in multidrug resistant Enterococcus faecalis ATCC 51299 assessed as destruction of biofilm integrity at 0.5 to 4 times MIC measured after 24 hrs by inverted fluorescence microscopic analysis; assay type: functional, organism-based
[30] = tested on: Staphylococcus aureus; assay: Bactericidal activity against methicillin-resistant Staphylococcus aureus clinical isolate 003 assessed as inhibition of bacterial growth by measuring ratio of MBC to MIC; assay type: functional
[31] = tested on: Cell membrane; assay: Disruption of membrane permeability in methicillin resistant Staphylococcus aureus clinical isolate 003 assessed as protein leakage at 2 to 4 times MIC
[32] = tested on: Staphylococcus aureus; assay: Antibacterial activity against methicillin resistant Staphylococcus aureus clinical isolate 003 in presence of peptidoglycan; assay type: functional, organism-based
[33] = tested on: Staphylococcus aureus; assay: Antibacterial activity against methicillin resistant Staphylococcus aureus clinical isolate 003 in presence of phosphatidylglycerol; assay type: functional, organism-based
[34] = tested on: Staphylococcus aureus; assay: Antibacterial activity against methicillin resistant Staphylococcus aureus clinical isolate 031; assay type: functional
[35] = tested on: Staphylococcus aureus; assay: Antibiofilm activity in methicillin resistant Staphylococcus aureus clinical isolate 003 assessed as inhibition of biofilm formation at 4 times MIC by crystal violet staining based analysis relative to control; assay type: functional
[36] = tested on: Cell membrane; assay: Disruption of membrane permeability in multidrug resistant Enterococcus faecalis ATCC 51299 assessed as nucleic acid leakage at 2 to 4 times MIC
[37] = tested on: Staphylococcus aureus; assay: Antibiofilm activity in methicillin resistant Staphylococcus aureus clinical isolate 003 assessed as biofilm clearance at 0.5 to 4 times MIC by crystal violet staining based analysis; assay type: functional, organism-based
[38] = tested on: Staphylococcus aureus; assay: Antibacterial activity against methicillin resistant Staphylococcus aureus clinical isolate 003 in presence of phosphatidylethanolamine; assay type: functional, organism-based
[39] = tested on: Enterococcus faecalis; assay: Antibiofilm activity in multidrug resistant Enterococcus faecalis ATCC 51299 assessed as inhibition of biofilm formation at 4 times MIC by crystal violet staining based analysis relative to control; assay type: functional
[40] = tested on: Cell membrane; assay: Induction of cell membrane damage in methicillin resistant Staphylococcus aureus clinical isolate 003 assessed as bacterial death at 2 to 4 times MIC by confocal laser scanning microscopy; assay type: cell membranes
[41] = tested on: Staphylococcus aureus; assay: Antibacterial activity against methicillin resistant Staphylococcus aureus clinical isolate 011; assay type: functional
[42] = tested on: Enterococcus faecalis; assay: Antibacterial activity against multidrug resistant Enterococcus faecalis ATCC 51299; assay type: functional
[43] = tested on: Staphylococcus aureus; assay: Antibiofilm activity in methicillin resistant Staphylococcus aureus clinical isolate 003 assessed as reduction in biofilm density at 0.5 to 4 times MIC measured after 24 hrs by inverted fluorescence microscopic analysis; assay type: functional, organism-based
[44] = tested on: Cell membrane; assay: Induction of cell membrane damage in multidrug resistant Enterococcus faecalis ATCC 51299 assessed as increase in green fluorescence at 2 to 4 times MIC by SYTOX Green dye based analysis; assay type: cell membranes

CCCCCCc1c(-c2ccc(OCCCCNCCCN)cc2OCCCCNCCCN)oc2cc(OC)cc(O)c2c1=O
<4: Ratio [1] | Ratio [30]
1 mg/L: MIC [22] | MIC [42]
0.25 mg/L: MIC [19] | MIC [24] | MIC [34] | MIC [41]
0.5 mg/L: MIC [3]
inactive: Activity [13] | Activity [15] | Activity [16] | Activity [33] | Activity [38]
>90%: inhibition (INH) [35] | inhibition (INH) [39]
active: Activity [4] | Activity [5] | Activity [6] | Activity [7] | Activity [9] Dose-Dependent Effect | Activity [10] Dose-Dependent Effect | Activity [11] | Activity [12] | Activity [14] | Activity [17] | Activity [18] Dose-Dependent Effect | Activity [20] Dose-Dependent Effect | Activity [21] | Activity [23] | Activity [25] | Activity [26] | Activity [27] | Activity [28] | Activity [29] Dose-Dependent Effect | Activity [31] | Activity [32] | Activity [36] | Activity [37] Dose-Dependent Effect | Activity [40] | Activity [43] Dose-Dependent Effect | Activity [44]
~80%: Activity [2] | Activity [8]

CCCCCCc1c(-c2ccc(OCCCCN(C)C)cc2OCCCCN(C)C)oc2cc(OC)cc(O)c2c1=O
<4: Ratio [1] | Ratio [30]
inactive: Activity [13] | Activity [15] | Activity [16] | Activity [33] | Activity [38]
~80%: Activity [2] | Activity [8]
0.5 mg/L: MIC [3] | MIC [19]
active: Activity [4] | Activity [5] | Activity [6] | Activity [7] | Activity [9] Dose-Dependent Effect | Activity [10] Dose-Dependent Effect | Activity [11] | Activity [12] | Activity [14] | Activity [17] | Activity [18] Dose-Dependent Effect | Activity [20] Dose-Dependent Effect | Activity [21] | Activity [23] | Activity [25] | Activity [26] | Activity [27] | Activity [28] | Activity [29] Dose-Dependent Effect | Activity [31] | Activity [32] | Activity [36] | Activity [37] Dose-Dependent Effect | Activity [40] | Activity [43] Dose-Dependent Effect | Activity [44]
1 mg/L: MIC [22] | MIC [24] | MIC [34] | MIC [41] | MIC [42]
>90%: inhibition (INH) [35] | inhibition (INH) [39]

CCCCCCc1c(-c2ccc(OCC(=O)CN[C@H](CCCNC(=N)N)C(=O)OC)cc2OCC(=O)CN[C@H](CCCNC(=N)N)C(=O)OC)oc2cc(OC)cc(O)c2c1=O
~80%: Activity [2] | Activity [8]
64 mg/L: MIC [22]
inactive: Activity [13] | Activity [15] | Activity [16] | Activity [33] | Activity [38]
<4: Ratio [1] | Ratio [30]
active: Activity [4] | Activity [5] | Activity [6] | Activity [7] | Activity [9] Dose-Dependent Effect | Activity [10] Dose-Dependent Effect | Activity [11] | Activity [12] | Activity [14] | Activity [17] | Activity [18] Dose-Dependent Effect | Activity [20] Dose-Dependent Effect | Activity [21] | Activity [23] | Activity [25] | Activity [26] | Activity [27] | Activity [28] | Activity [29] Dose-Dependent Effect | Activity [31] | Activity [32] | Activity [36] | Activity [37] Dose-Dependent Effect | Activity [40] | Activity [43] Dose-Dependent Effect | Activity [44]
1 mg/L: MIC [19] | MIC [24] | MIC [41]
2 mg/L: MIC [3] | MIC [34]
>90%: inhibition (INH) [35] | inhibition (INH) [39]
32 mg/L: MIC [42]
